Test results taken from ChEMBL document CHEMBL3813654, “De Novo Design at the Edge of Chaos” (J Med Chem, 2016).

Assays:
[1] = biological target: Serine/threonine-protein kinase PLK1 (Homo sapiens, UniProt P53350); assay: Inhibition of inactivated PLK1 in human HeLa cells using casein as substrate by immunoprecipitation assay; type: cell-based
[2] = biological target: Collagenase 3 (Homo sapiens, UniProt P45452); assay: Inhibition of human recombinant MMP13 (85 to 255 residues) expressed in Escherichia coli using 5-FAM/QXLTM as substrate by fluorometric assay
[3] = biological target: cGMP-inhibited 3',5'-cyclic phosphodiesterase 3B (Homo sapiens, UniProt Q13370); assay: Inhibition of human recombinant PDE3B expressed in insect Sf9 cells assessed as residual cAMP level after 30 mins by HTRF assay
Sequence of cGMP-inhibited 3',5'-cyclic phosphodiesterase 3B (Q13370 whole entry): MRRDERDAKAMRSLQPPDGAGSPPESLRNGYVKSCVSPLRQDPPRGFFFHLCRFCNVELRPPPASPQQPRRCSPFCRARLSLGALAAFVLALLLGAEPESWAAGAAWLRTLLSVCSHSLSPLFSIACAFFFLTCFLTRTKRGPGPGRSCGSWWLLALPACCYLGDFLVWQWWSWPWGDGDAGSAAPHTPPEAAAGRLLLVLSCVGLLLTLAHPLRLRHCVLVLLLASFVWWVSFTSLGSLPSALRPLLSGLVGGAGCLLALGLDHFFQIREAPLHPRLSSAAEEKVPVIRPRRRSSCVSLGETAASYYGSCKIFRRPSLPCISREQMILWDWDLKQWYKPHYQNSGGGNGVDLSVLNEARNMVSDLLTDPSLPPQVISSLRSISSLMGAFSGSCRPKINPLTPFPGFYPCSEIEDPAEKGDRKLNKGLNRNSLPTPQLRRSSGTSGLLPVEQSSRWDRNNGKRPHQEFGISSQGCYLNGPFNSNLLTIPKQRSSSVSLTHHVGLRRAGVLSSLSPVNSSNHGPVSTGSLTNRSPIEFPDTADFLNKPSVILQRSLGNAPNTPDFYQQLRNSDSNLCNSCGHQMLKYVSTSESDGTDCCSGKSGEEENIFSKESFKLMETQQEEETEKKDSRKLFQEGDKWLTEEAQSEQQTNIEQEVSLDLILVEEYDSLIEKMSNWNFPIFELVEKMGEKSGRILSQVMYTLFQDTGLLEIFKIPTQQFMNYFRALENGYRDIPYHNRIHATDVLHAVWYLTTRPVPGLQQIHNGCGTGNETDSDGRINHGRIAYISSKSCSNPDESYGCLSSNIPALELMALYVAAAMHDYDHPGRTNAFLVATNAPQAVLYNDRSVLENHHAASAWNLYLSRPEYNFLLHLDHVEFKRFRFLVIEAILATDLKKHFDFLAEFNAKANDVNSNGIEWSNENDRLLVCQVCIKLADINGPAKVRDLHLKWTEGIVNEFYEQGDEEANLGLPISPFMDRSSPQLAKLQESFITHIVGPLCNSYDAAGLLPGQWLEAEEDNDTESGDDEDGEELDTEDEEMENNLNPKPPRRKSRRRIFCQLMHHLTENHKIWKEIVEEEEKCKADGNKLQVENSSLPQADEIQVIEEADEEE

[4] = biological target: Estrogen receptor beta (Homo sapiens, UniProt Q92731); assay: Displacement of [3H]-17beta-estradiol from human recombinant ERbeta expressed in rabbit reticulocytes; type: cell-based
Sequence of Estrogen receptor beta (Q92731 whole entry): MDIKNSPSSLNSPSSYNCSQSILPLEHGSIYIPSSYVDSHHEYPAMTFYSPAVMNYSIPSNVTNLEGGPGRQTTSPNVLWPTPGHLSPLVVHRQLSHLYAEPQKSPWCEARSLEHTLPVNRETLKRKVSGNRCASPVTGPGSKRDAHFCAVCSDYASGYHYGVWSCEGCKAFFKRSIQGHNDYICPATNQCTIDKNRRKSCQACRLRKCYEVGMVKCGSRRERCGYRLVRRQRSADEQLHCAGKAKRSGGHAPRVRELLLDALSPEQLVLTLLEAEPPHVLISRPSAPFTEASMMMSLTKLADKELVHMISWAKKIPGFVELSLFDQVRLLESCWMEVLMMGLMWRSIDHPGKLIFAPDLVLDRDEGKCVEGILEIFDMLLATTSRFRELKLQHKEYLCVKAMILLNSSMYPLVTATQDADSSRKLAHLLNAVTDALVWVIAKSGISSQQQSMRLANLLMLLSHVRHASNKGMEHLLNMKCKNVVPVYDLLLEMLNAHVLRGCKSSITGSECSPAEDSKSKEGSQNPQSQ

[5] = biological target: T1, Estrogen receptor (Homo sapiens, UniProt P03372); assay: Displacement of [3H]-17beta-estradiol from human recombinant ERalpha expressed in rabbit reticulocytes; type: cell-based
T1 sequence (P03372 whole entry): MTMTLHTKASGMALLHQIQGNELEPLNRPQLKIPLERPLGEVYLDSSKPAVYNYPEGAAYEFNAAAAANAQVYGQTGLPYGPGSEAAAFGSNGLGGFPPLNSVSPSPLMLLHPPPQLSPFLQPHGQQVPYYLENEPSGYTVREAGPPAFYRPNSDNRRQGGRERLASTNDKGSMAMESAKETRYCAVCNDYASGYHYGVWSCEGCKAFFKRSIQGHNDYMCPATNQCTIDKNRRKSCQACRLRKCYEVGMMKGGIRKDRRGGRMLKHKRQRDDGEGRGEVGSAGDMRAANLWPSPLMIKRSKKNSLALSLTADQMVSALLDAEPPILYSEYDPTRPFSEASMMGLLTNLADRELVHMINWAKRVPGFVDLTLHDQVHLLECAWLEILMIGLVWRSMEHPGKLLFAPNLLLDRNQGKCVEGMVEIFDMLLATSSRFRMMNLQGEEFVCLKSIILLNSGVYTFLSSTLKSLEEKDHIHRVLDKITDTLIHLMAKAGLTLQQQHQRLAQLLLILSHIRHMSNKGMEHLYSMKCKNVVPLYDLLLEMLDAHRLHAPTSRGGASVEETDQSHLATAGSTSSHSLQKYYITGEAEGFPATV

[6] = biological target: MAP kinase p38 (Homo sapiens, UniProt O15264+Q15759+Q16539+P53778); assay: Inhibition of human P38 expressed in yeast using T669 as substrate preincubated for 30 mins followed by [gamma-32P]Mg/ATP addition measured after 25 mins by beta scintillation counting method
[7] = biological target: Cyclin-dependent kinase 4/cyclin D2 (Homo sapiens, UniProt P11802+P30279); assay: Inhibition of human recombinant CDK4/Cyclin D2 expressed in baculovirus infected insect Sf9 cells using G1 peptide as substrate after 45 mins by Top Count method in presence of [33P]-ATP
Sequence of Cyclin-dependent kinase 4/cyclin D2 (P11802 whole entry): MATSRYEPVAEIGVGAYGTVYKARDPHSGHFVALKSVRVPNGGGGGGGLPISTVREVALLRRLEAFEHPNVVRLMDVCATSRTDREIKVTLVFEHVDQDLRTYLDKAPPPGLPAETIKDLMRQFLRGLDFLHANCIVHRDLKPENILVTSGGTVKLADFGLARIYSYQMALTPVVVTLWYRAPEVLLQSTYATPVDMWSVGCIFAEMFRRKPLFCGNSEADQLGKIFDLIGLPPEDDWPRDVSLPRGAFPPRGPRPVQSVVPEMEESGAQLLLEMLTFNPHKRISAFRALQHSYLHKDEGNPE
Sequence of Cyclin-dependent kinase 4/cyclin D2 (P30279 whole entry): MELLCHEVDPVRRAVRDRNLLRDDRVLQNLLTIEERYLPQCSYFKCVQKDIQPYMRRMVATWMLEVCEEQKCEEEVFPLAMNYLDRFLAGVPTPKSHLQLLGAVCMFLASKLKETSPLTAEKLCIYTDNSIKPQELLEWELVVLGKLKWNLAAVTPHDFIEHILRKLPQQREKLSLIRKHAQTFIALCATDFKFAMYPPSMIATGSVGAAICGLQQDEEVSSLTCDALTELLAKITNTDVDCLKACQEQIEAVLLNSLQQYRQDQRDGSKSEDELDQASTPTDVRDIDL

[8] = biological target: Protease (Human immunodeficiency virus 1, UniProt Q9YQ12); assay: Inhibition of HIV1 protease
Sequence of Protease (Q9YQ12 whole entry): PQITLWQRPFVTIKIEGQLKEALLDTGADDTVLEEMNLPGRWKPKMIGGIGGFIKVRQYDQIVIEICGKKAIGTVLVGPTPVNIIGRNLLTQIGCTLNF

[9] = biological target: Procathepsin L (Homo sapiens, UniProt P07711); assay: Activation of human liver cathepsin L using Z-FR-AMC as substrate measured for 120 mins by fluorescence assay
Sequence of Procathepsin L (P07711 whole entry): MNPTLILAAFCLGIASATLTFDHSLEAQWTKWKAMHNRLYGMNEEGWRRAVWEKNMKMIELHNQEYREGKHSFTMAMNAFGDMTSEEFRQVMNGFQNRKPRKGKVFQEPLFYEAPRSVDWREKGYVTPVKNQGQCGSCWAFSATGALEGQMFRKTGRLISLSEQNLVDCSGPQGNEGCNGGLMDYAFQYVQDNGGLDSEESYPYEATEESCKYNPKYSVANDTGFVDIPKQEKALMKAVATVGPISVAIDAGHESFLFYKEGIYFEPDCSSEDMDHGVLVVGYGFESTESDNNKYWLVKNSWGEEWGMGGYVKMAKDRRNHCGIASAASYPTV

Sequence of Serine/threonine-protein kinase PLK1 (P53350 whole entry, the tested form may be a part): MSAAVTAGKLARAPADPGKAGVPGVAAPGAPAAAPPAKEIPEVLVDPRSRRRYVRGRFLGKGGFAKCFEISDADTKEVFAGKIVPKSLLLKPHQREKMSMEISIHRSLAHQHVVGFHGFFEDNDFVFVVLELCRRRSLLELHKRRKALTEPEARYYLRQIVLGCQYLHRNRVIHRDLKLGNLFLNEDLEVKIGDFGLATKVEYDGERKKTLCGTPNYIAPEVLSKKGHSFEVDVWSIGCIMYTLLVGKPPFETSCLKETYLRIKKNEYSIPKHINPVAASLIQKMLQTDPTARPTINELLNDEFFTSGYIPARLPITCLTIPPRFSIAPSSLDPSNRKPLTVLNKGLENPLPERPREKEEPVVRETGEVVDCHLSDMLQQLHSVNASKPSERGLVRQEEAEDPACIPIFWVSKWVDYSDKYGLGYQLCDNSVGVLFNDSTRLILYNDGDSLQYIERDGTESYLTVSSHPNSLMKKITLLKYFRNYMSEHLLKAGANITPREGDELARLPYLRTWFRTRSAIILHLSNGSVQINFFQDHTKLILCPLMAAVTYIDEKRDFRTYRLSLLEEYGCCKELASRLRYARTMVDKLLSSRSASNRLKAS

In the case of `FC(F)(F)c1ccc(OC(CCNCc2ccccn2)c2ccccc2)cc1` (centres undefined), the IC50 [1] is reported as 50 nM.
`O=C(O)CCCOc1cccc(CNC(=O)C#Cc2cn(Cc3ccc(C(=O)O)cc3)c(=O)[nH]c2=O)c1` gave an IC50 [2] of 6 nM.
`O=C1CCC(c2ccc(NC(=O)Cc3cccnc3)cc2)=NN1` was tested, and the EC50 [3] was 6000 nM.
In the case of `CCc1ccc2c(c1)C(c1ccc(OCCN3CCOCC3)cc1)Cc1cc(O)cc(C)c1-2` (centres undefined), the IC50 [4] is reported as 190 nM and the IC50 [5] is reported as 9 nM.
`Cc1ccc(-c2ncn(CC3CC3)c2-c2ccncc2)cc1` gave an IC50 [6] of 160 nM.
`O=C(Nc1ccccn1)Nc1cccc2c1-c1ccccc1C2=O` was tested, and the IC50 [7] was 100 nM.
`CC(C)(C)NC(=O)[C@@H]1C[C@@H]2CCCC[C@@H]2CN1C[C@@H](O)[C@H](Cc1ccccc1)NC(=O)OC1CCCC1` showed an IC50 [8] of 160 nM.
For `O=C(COc1ccccc1)N[C@@H](Cc1ccccc1)C(=O)O[C@H]1CCOC1`, the EC50 [9] was 6000 nM.
